Tested on: 313798-341-R-J2-PDC spheroids, viability
Test: Anticancer human tumor 313798-341-R-J2-PDC patient-derived cervical squamous cell carcinoma cell line growth inhibition [PI3K]
Conditions: spheroids with HUVEC and MSC; for IC50: curve of first compound; for viability, T/C: stronger effect = lower value
Method in brief: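 Three cell types, namely tumor cells, endothelial cells and mesenchymal stem cells, formed each spheroid. Combinations with four PI3K inhibitors were screened at clinically achievable concentrations decreasing by half-log, and spheroid viability was recorded.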

[1] = second compound 0.00316 µM, first compound 0.0316 µM
[2] = second compound 0.00316 µM, first compound 0.1 µM
[3] = second compound 0.01 µM, first compound 0.0316 µM
[4] = second compound 0.01 µM, first compound 0.1 µM
[5] = second compound 0.0316 µM, first compound 0.0316 µM
[6] = second compound 0.0316 µM, first compound 0.1 µM
[7] = second compound 0.1 µM, first compound 0.0316 µM
[8] = second compound 0.1 µM, first compound 0.1 µM
[9] = second compound 0.316 µM, first compound 0.0316 µM
[10] = second compound 0.316 µM, first compound 0.1 µM
[11] = second compound 1 µM, first compound 0.0316 µM
[12] = second compound 1 µM, first compound 0.1 µM
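Also: spheroids exposed to compounds for seven days.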
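For viability, T/C in this document: 100% = DMSO vehicle control viability.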

Work on C[C@@H](NC(=O)c1ncnc(N)c1Cl)c1ncc(C(=O)Nc2cc(C(F)(F)F)c(Cl)cn2)s1 + CC(Nc1ccc2c(c1)OCCn1cc(N3C(=O)OCC3C(F)F)nc1-2)C(N)=O yielded an IC50 (second compound 0.00316 µM) of 5.94 µM, an IC50 (second compound 0.01 µM) of 5.98 µM and an IC50 (second compound 0.0316 µM) of 5.9 µM. The IC50 (second compound 0.1 µM) was 4.72 µM, the IC50 (second compound 0.316 µM) was 1.91 µM and the IC50 (second compound 1 µM) was under 0.0316 µM. The viability, T/C [1] was 101%, the viability, T/C [2] was 106% and the viability, T/C (second compound 0.00316 µM, first compound 0.316 µM) was 103%. The viability, T/C (second compound 0.00316 µM, first compound 1 µM) was 95.4%, the viability, T/C (second compound 0.00316 µM, first compound 3.16 µM) was 110% and the viability, T/C (second compound 0.00316 µM, first compound 10 µM) was 6.06%. For the same compound, the viability, T/C [3] was 110%, the viability, T/C [4] was 105% and the viability, T/C (second compound 0.01 µM, first compound 0.316 µM) was 95.1%. For the same compound, the viability, T/C (second compound 0.01 µM, first compound 1 µM) was 105%, the viability, T/C (second compound 0.01 µM, first compound 3.16 µM) was 110% and the viability, T/C (second compound 0.01 µM, first compound 10 µM) was 5.51%. The viability, T/C [5] was 99.9%, the viability, T/C [6] was 103% and the viability, T/C (second compound 0.0316 µM, first compound 0.316 µM) was 110%. For the same compound, the viability, T/C (second compound 0.0316 µM, first compound 1 µM) was 114%, the viability, T/C (second compound 0.0316 µM, first compound 3.16 µM) was 99.6% and the viability, T/C (second compound 0.0316 µM, first compound 10 µM) was 8.08%. The viability, T/C [7] was 81.9%, the viability, T/C [8] was 78% and the viability, T/C (second compound 0.1 µM, first compound 0.316 µM) was 91.8%. The viability, T/C (second compound 0.1 µM, first compound 1 µM) was 92.7%, the viability, T/C (second compound 0.1 µM, first compound 3.16 µM) was 73.3% and the viability, T/C (second compound 0.1 µM, first compound 10 µM) was 6.24%. For the same compound, the viability, T/C [9] was 55.2%, the viability, T/C [10] was 54.6% and the viability, T/C (second compound 0.316 µM, first compound 0.316 µM) was 61.6%. It also gave a viability, T/C (second compound 0.316 µM, first compound 1 µM) of 66.5%, a viability, T/C (second compound 0.316 µM, first compound 3.16 µM) of 42.6% and a viability, T/C (second compound 0.316 µM, first compound 10 µM) of 9.28%. The viability, T/C [11] was 51.8%, the viability, T/C [12] was 41.5% and the viability, T/C (second compound 1 µM, first compound 0.316 µM) was 53.4%. For the same compound, the viability, T/C (second compound 1 µM, first compound 1 µM) was 45.4%, the viability, T/C (second compound 1 µM, first compound 3.16 µM) was 29.3% and the viability, T/C (second compound 1 µM, first compound 10 µM) was 14.3%.

Cn1ncnc1[C@H]1c2n[nH]c(=O)c3cc(F)cc(c23)N[C@@H]1c1ccc(F)cc1 + CC(Nc1ccc2c(c1)OCCn1cc(N3C(=O)OCC3C(F)F)nc1-2)C(N)=O gave an IC50 (second compound 0.00316 µM) of over 0.1 µM, an IC50 (second compound 0.01 µM) of over 0.1 µM and an IC50 (second compound 0.0316 µM) of over 0.1 µM. The IC50 (second compound 0.1 µM) was over 0.1 µM, the IC50 (second compound 0.316 µM) was over 0.1 µM and the IC50 (second compound 1 µM) was 0.0225 µM. The viability, T/C (second compound 0.00316 µM, first compound 0.000316 µM) was 104%, the viability, T/C (second compound 0.00316 µM, first compound 0.001 µM) was 96.2% and the viability, T/C (second compound 0.00316 µM, first compound 0.00316 µM) was 99.1%. For the same compound, the viability, T/C (second compound 0.00316 µM, first compound 0.01 µM) was 98.1%, the viability, T/C [1] was 94.9% and the viability, T/C [2] was 84.7%. The viability, T/C (second compound 0.01 µM, first compound 0.000316 µM) was 95.7%, the viability, T/C (second compound 0.01 µM, first compound 0.001 µM) was 104% and the viability, T/C (second compound 0.01 µM, first compound 0.00316 µM) was 88.5%. It also gave a viability, T/C (second compound 0.01 µM, first compound 0.01 µM) of 93.5%, a viability, T/C [3] of 92.8% and a viability, T/C [4] of 83.5%. For the same compound, the viability, T/C (second compound 0.0316 µM, first compound 0.000316 µM) was 107%, the viability, T/C (second compound 0.0316 µM, first compound 0.001 µM) was 102% and the viability, T/C (second compound 0.0316 µM, first compound 0.00316 µM) was 115%. It also gave a viability, T/C (second compound 0.0316 µM, first compound 0.01 µM) of 106%, a viability, T/C [5] of 100% and a viability, T/C [6] of 100%. The viability, T/C (second compound 0.1 µM, first compound 0.000316 µM) was 102%, the viability, T/C (second compound 0.1 µM, first compound 0.001 µM) was 102% and the viability, T/C (second compound 0.1 µM, first compound 0.00316 µM) was 91.7%. The viability, T/C (second compound 0.1 µM, first compound 0.01 µM) was 89%, the viability, T/C [7] was 96.9% and the viability, T/C [8] was 72.8%. For the same compound, the viability, T/C (second compound 0.316 µM, first compound 0.000316 µM) was 77.2%, the viability, T/C (second compound 0.316 µM, first compound 0.001 µM) was 78% and the viability, T/C (second compound 0.316 µM, first compound 0.00316 µM) was 78.3%. For the same compound, the viability, T/C (second compound 0.316 µM, first compound 0.01 µM) was 73.6%, the viability, T/C [9] was 71.3% and the viability, T/C [10] was 58.1%. The viability, T/C (second compound 1 µM, first compound 0.000316 µM) was 57.5%, the viability, T/C (second compound 1 µM, first compound 0.001 µM) was 57% and the viability, T/C (second compound 1 µM, first compound 0.00316 µM) was 58.3%. For the same compound, the viability, T/C (second compound 1 µM, first compound 0.01 µM) was 48.1%, the viability, T/C [11] was 52.1% and the viability, T/C [12] was 38.1%.

Source: PubChem BioAssay AID1963982 (Molecular Pharmacology Branch, DTP, NCI, 2024)
